Converted amounts (≈) assume the structure as drawn. Read-outs that look alike come from different tables or passages of the source.
Columns and labels:
[1] = Solubility measurement (DMSO solution precipitation method); format: physicochemical; conditions: aqueous buffer, kinetic from dmso stock
Experimental: The DMSO solution is diluted with an aqueous medium (McIlvaine buffer with pH=4.5 or 6.8) to a final concentration of 250 μM. After 24 h of shaking at ambient temperature a potentially formed precipitate is removed by filtration. The concentration of the test compound in the filtrate is determined by LC-UV methods by calibrating the signal to the signal of a reference solution with complete dissolution of the test compound in acetonitrile/water (1:1) with known concentration.

[2] = test system: NCI-H358 cells; assay: NCI-H358 CTG proliferation assay (120 h) (NSCLC, G12C); format: cell-based; conditions: Homo sapiens
Experimental: Additional Proliferation Assays with Mutant Cancer Cell Lines • NCI-H358 CTG proliferation assay (120 h) (NSCLC, G12C)
NCI-H358 cells (ATCC No. CRL-5807) are dispensed into black 384-well plates, flat and clear bottom (Greiner, PNr. 781091) at a density of 200 cells per well in 60 μl RPMI-1640 ATCC-Formulation (Gibco #A10491)+10% FCS (fetal calf serum). […] For the TO time point measurement, untreated cells are analyzed at the time of compound addition. Plates are incubated for 120 h, and cell viability is measured using CellTiter-Glo luminescent cell viability reagent (Promega product code G7570). Viability (stated as percent of control) is defined as relative luminescence units RLU of each well divided by the RLU of cells in DMSO controls.

[3] = target: KRAS G12C Ba/F3 (Homo sapiens, UniProt P01116, G12C, cells depend on it); assay: Ba/F3 proliferation assay, KRAS G12C; format: cell-based; conditions: 72 h, AlamarBlue, read-out: KRAS G12C Ba/F3 IC50
Sequence of KRAS G12C Ba/F3 (P01116 whole entry G12C, canonical isoform): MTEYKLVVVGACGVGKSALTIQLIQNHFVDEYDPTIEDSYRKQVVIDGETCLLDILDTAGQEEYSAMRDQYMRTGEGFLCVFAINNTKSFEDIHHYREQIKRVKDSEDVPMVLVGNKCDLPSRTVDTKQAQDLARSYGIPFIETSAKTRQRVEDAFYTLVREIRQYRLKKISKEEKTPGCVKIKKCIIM
Experimental: (§1) Plasmids containing KRASG12 mutants(i.e. G12D, G12C, G12V) are obtained from GeneScript. To generate KRASG12-dependent Ba/F3 models, Ba/F3 cells are transduced with retroviruses containing vectors that harbor KRASG12 isoforms. Platinum-E cells (Cell Biolabs) are used for retrovirus packaging. Retrovirus is added to Ba/F3 cells. To ensure infection, 4 μg/mL polybrene is added and cells are spinfected. […] Cells with an infection efficiency of 10% to 20% are further cultivated and puromycin selection with 1 μg/mL is initiated. As a control, parental Ba/F3 cells are used to show selection status. Selection is considered successful when parental Ba/F3 cells cultures died. To evaluate the transforming potential of KRASG12 mutations, the growth medium is no longer supplemented with IL-3. Ba/F3 cells harboring the empty vector are used as a control. Approximately ten days before conducting the experiments, puromycin is left out.
(§2) Compounds are added using an Access Labcyte Workstation with a Labcyte Echo 550 or 555 accoustic dispenser. All treatments are performed in technical duplicates. […] AlamarBlue™ (ThermoFisher), a viability stain, is added and fluorescence measured in the PerkinElmer Envision HTS Multilabel Reader. The raw data are imported into and analyzed with the Boehringer Ingelheim proprietary software MegaLab (curve fitting based on the program PRISM, GraphPad Inc.).

[4] = test system: SK-CO-1 cells; assay: SK-CO-1 CTG proliferation assay (120 h) (CRC, G12V); format: cell-based; conditions: Homo sapiens
Experimental: SK-CO-1 cells (ATCC HTB-39) are dispensed into 384-well plates, flat and clear bottom (Greiner, PNr. 781091) at a density of 500 cells per well in 60 μL EMEM (Sigma M5650)+10% Fetal Calf Serum (HyClone, PNr.: SH30084.03) and incubated at 37° C. in a CO2 incubator overnight. The next day, compounds (10 mM stock in DMSO) are added with the ECHO acoustic liquid handler system (Beckman Coulter), including DMSO controls. Plates are incubated for 120 h, and cell viability is measured using CellTiter-Glo luminescent cell viability reagent (Promega product code G7570). Viability (stated as percent of control) is defined as relative luminescence units RLU of each well divided by the RLU of cells in DMSO controls.

[5] = target: KRAS G12V Ba/F3 (Homo sapiens, UniProt P01116, G12V, cells depend on it); assay: Ba/F3 proliferation assay, KRAS G12V; format: cell-based; conditions: 72 h, AlamarBlue, read-out: KRAS G12V Ba/F3 IC50
Sequence of KRAS G12V Ba/F3 (P01116 whole entry G12V): as the sequence (P01116 whole entry G12C, canonical isoform) above, with C12V counted along it
Experimental: as §1, §2

[6] = McIlvaine buffer pH 4.5, 24 h, read-out: Solubility [μg/ml] pH 4.5
[7] = McIlvaine buffer pH 6.8, 24 h, read-out: Solubility [μg/ml] pH 6.8

| Structure (SMILES) | solubility at 24 h [1, 6] | solubility at 24 h [1, 7] | IC50 [2] | GI50 [3] | IC50 [4] | GI50 [5] |
| --- | --- | --- | --- | --- | --- | --- |
| C[C@H](Oc1cc(Oc2ccon2)nc(-c2noc3c2CCC[C@@]32CCCc3sc(N)c(C#N)c32)n1)[C@@H]1CCCN1C [II-3] | > 138 µg/mL | 42 µg/mL (≈ 73.2 µM) | 275 nM | 17 nM | 84 nM | 9 nM |
| C[C@H](Oc1cc(O[C@H]2CNC(C)(C)C2)nc(-c2noc3c2CCC[C@@]32CCCc3sc(N)c(C#N)c32)n1)[C@@H]1CCCN1C (single isomer, unassigned) [II-8] | > 145 µg/mL | > 146 µg/mL | 1180 nM | 592 nM | 774 nM | 869 nM |
| C[C@H](Oc1cc(OCC2(N(C)C)COC2)nc(-c2onc3c2CCC[C@@]32CCCc3sc(N)c(C#N)c32)n1)[C@@H]1CCCN1C [Example I-8] | > 143 µg/mL | > 125 µg/mL | 76 nM | 51 nM | 401 nM | 85 nM |
| C[C@H](Oc1cc(Oc2cncnc2)nc(-c2noc3c2CCC[C@@]32CCCc3sc(N)c(C#N)c32)n1)[C@@H]1CCCN1C [II-1] | > 137 µg/mL | > 124 µg/mL | 178 nM | 4 nM | 18 nM | 4 nM |
| C[C@H](Oc1cc(Oc2nccs2)nc(-c2noc3c2CCC[C@@]32CCCc3sc(N)c(C#N)c32)n1)[C@@H]1CCCN1C [II-2] | > 109 µg/mL | < 1 µg/mL | 115 nM | 5 nM | 26 nM | 4 nM |
| C[C@H](Oc1cc(Oc2cnccn2)nc(-c2noc3c2CCC[C@@]32CCCc3sc(N)c(C#N)c32)n1)[C@@H]1CCCN1C [II-7] | > 118 µg/mL | 90 µg/mL (≈ 154 µM) | – | 4 nM | 21 nM | 3 nM |
| C[C@H](Oc1cc(Oc2nccs2)nc(-c2onc3c2CCC[C@@]32CCCc3sc(N)c(C#N)c32)n1)[C@@H]1CCCN1C [Example I-1] | 95 µg/mL (≈ 161 µM) | < 1 µg/mL | – | 4 nM | 24 nM | 3 nM |
| C[C@H](Oc1cc(Nc2ccccn2)nc(-c2noc3c2CCC[C@@]32CCCc3sc(N)c(C#N)c32)n1)[C@@H]1CCCN1C [II-16] | 41 µg/mL (≈ 70.4 µM) | < 1 µg/mL | 440 nM | 24 nM | – | 11 nM |
| C[C@H](Oc1cc(Nc2cccnn2)nc(-c2noc3c2CCC[C@@]32CCCc3sc(N)c(C#N)c32)n1)[C@@H]1CCCN1C [II-18] | – | – | 430 nM | 37 nM | 133 nM | 11 nM |
| C[C@H](Oc1cc(OCC2(N(C)C)COC2)nc(-c2noc3c2CCC[C@@]32CCCc3sc(N)c(C#N)c32)n1)[C@@H]1CCCN1C [II-22] | > 168 µg/mL | > 157 µg/mL | – | 22 nM | 354 nM | 35 nM |
| C[C@H](Oc1cc(OCC2(N(C)C)CC2)nc(-c2noc3c2CCC[C@@]32CCCc3sc(N)c(C#N)c32)n1)[C@@H]1CCCN1C [II-21] | > 143 µg/mL | > 126 µg/mL | – | 195 nM | 977 nM | 237 nM |
| C[C@H](Oc1cc(Oc2cccnc2)nc(-c2onc3c2CCC[C@@]32CCCc3sc(N)c(C#N)c32)n1)[C@@H]1CCCN1C [Example I-2] | > 125 µg/mL | 89 µg/mL (≈ 152 µM) | – | 4 nM | 23 nM | 2 nM |
| C[C@H](Oc1cc(NCC2COC2)nc(-c2noc3c2CCC[C@@]32CCCc3sc(N)c(C#N)c32)n1)[C@@H]1CCCN1C [II-11] | – | – | – | 14 nM | 46 nM | 29 nM |

From US20250129095A1, “ANNULATED 2-AMINO-3-CYANO THIOPHENES AND DERIVATIVES FOR THE TREATMENT OF CANCER” (Boehringer Ingelheim Int'l GmbH Corp., priority 2021, published 2025)
